For one assay, the target named is T1, placental αvβ3 (Homo sapiens, UniProt P05106+P06756).
T1 construct: purified active GP IIb-IIIa (Calbiochem) or olacental αvβ3 at 0.5 μg/ml; from tissue; host or cells: placenta
The experiment in a line: Fibrinogen binding to immobilized αvβ3. Conditions: biotinylated-fibrinogen 10 nM, immobilized placental αvβ3; read-out: IC50 values for the fibrinogen binding assay αvβ3. The procedure:
(§1) Nonbound fibrinogen was removed by five washes with binding buffer. Avidin conjugated to alkaline phosphatase (Sigma), diluted in binding buffer, was added and incubated for two hours at 37° C. The plates were washed five times with binding buffer, and after addition of the substrate PNPP (Pierce), the enzyme activity was measured by the absorbance at 405 nm.

Another assay addresses T2, GP IIb-IIIa (αIIbβ3) (Homo sapiens, UniProt P05106+P08514).
T2 construct: purchased Calbiochem
The experiment in a line: Fibrinogen binding to immobilized GP IIb-IIIa (αIIbβ3). Conditions: biotinylated-fibrinogen 10 nM, immobilized GP IIb-IIIa; read-out: IC50 values for the fibrinogen binding assay αIIbβ3. Here is the method:
as §1

Where a name gives a salt, the structure may show the parent alone.

One may read the IC50 as the concentration that gives 50% inhibition.

T2 sequence (P08514 32-887 limits assumed): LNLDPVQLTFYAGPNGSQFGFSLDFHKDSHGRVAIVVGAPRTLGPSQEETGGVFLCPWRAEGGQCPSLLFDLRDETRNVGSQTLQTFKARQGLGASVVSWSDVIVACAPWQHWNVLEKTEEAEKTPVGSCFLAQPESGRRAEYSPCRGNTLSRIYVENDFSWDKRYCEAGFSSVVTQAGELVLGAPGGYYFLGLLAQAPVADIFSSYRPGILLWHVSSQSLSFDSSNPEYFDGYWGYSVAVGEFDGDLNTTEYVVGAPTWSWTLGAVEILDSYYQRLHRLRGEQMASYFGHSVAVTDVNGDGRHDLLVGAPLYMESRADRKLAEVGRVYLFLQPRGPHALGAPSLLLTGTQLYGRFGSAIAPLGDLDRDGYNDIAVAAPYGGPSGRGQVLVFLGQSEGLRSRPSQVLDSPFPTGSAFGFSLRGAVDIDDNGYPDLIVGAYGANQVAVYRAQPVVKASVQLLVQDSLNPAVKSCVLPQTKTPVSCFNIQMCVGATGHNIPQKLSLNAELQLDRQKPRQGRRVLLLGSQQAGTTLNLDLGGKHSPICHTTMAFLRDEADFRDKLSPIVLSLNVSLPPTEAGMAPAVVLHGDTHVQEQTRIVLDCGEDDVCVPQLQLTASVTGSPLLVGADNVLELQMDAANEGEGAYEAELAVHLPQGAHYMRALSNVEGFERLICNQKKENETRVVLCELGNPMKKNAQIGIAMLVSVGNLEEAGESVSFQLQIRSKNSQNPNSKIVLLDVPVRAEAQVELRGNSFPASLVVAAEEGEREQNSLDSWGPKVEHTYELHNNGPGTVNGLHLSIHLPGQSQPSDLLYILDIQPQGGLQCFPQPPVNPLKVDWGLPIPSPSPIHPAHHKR
T2 sequence (P08514 891-1039 partner limits assumed): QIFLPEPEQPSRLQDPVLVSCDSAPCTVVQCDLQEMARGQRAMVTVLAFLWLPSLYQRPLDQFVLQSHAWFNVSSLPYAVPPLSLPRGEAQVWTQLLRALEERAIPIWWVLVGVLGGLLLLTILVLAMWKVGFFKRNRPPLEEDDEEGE
T2 sequence (P05106 27-788): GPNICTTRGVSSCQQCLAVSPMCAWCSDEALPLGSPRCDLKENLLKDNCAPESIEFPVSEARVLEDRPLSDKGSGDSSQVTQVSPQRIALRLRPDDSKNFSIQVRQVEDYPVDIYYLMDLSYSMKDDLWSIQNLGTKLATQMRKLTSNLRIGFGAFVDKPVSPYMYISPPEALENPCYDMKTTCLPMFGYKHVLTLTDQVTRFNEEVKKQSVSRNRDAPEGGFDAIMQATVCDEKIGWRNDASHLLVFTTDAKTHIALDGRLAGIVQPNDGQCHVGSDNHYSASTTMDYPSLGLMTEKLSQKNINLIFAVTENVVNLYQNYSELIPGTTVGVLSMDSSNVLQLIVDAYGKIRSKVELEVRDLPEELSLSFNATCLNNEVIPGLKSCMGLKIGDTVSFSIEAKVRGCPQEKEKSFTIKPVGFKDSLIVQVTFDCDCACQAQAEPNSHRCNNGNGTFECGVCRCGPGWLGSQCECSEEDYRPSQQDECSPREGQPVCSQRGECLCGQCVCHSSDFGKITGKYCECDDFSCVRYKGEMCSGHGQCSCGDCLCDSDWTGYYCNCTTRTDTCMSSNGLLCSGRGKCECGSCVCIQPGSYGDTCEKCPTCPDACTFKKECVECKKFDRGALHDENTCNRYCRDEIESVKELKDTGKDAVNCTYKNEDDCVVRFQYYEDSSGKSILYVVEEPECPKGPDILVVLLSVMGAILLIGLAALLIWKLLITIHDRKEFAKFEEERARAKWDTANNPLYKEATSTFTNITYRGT
T1 sequence (P06756 31-889 limits assumed): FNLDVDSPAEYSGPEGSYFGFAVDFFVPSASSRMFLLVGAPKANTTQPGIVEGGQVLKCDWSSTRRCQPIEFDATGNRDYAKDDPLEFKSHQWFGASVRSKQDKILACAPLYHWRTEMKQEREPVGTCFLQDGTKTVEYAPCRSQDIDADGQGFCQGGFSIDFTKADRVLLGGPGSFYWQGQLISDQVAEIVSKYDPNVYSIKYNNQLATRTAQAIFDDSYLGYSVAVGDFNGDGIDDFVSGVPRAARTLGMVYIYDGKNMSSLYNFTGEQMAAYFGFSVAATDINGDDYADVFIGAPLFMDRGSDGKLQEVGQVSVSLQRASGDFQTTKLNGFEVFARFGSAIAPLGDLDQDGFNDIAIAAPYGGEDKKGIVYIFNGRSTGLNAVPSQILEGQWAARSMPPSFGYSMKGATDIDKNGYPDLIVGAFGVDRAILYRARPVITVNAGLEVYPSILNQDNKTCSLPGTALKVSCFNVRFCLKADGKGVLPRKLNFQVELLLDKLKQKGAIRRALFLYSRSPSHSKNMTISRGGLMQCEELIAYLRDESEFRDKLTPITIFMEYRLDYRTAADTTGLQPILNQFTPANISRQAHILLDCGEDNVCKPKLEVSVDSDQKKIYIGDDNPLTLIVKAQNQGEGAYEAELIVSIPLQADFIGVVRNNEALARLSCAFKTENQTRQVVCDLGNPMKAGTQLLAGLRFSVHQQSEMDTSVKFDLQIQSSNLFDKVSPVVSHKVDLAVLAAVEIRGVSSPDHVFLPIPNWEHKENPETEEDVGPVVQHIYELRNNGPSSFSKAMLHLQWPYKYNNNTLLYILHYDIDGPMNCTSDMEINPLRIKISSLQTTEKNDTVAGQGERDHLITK
T1 sequence (P06756 891-1048 partner limits assumed): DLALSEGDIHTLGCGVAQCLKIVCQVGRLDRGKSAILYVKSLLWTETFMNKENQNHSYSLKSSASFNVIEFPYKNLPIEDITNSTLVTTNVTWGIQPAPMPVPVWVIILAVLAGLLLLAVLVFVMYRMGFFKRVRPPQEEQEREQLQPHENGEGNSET
T1 sequence (P05106 27-788): as the sequence (P05106 27-788) above

Consider `N=C(N)NCCCOc1ccc2ccc(NC(=O)NC(CC(=O)O)c3cccnc3)c(=O)n2c1` (racemic) [Compound VIII, (+/−)-3-{3-[7-(3-Guanidino-propoxy)-4-oxo-4H-quinolizin-3-yl]-ureido}-3-pyridin-3-yl-propionic Acid], for which the IC50 at placental αvβ3 was determined as 1.2 µM; at GP IIb-IIIa (αIIbβ3), 3.5 µM.

With `O=C(O)CC(NC(=O)c1ccc2ccc(OCCCNC(=O)OCc3ccccc3)cn2c1=O)c1ccccc1` (racemic) [Compound XI, (+/−)-3-{[7-(3-Benzyloxycarbonylamino-propoxy)-4-oxo-4H-quinolizine-3-carbonyl]-amino}-3-phenyl-propionic Acid], the IC50 on placental αvβ3 and on GP IIb-IIIa (αIIbβ3) was 20 µM throughout.

As to `N=C(N)NC1CCC(Nc2ccn3c(=O)c(C(=O)NC(CC(=O)O)c4ccccc4)ccc3c2)CC1` (racemic) [Compound XLI, (+/−)-3-{[8-(4-Guanidino-cyclohexylamino)-4-oxo-4H-quinolizine-3-carbonyl]-amino}-3-phenyl-propionic Acid Trifluoroacetic Acid Salt], the results for the IC50 on placental αvβ3 and at GP IIb-IIIa (αIIbβ3) were 17 µM and 0.23 µM, respectively.

On to `N=C(N)NCc1ccc2cc(C(=O)NC(CC(=O)O)c3cc(Cl)cc(Cl)c3)cc(=O)n2c1` (racemic) [Compound XLII, (+/−)-3-(3,5-Dichlorophenyl)-3-((7-guanidinomethyl-4-oxo-4H-quinolizine-2-carbonyl)-amino]-propionic acid trifluoroacetic acid salt], for which the IC50 at placental αvβ3 is 4 µM; on GP IIb-IIIa (αIIbβ3) it was 23 µM.

Consider `N=C(N)NCc1ccc2cc(C(=O)NC(CC(=O)O)c3cccnc3)cc(=O)n2c1` (racemic) [Compound XLIII, (+/−)-3-[(7-guanidinomethyl-4-oxo-4H-quinolizine-2-carbonyl]-amino)-3-pyridin-3-yl-propionic acid bis-trifluoroacetic acid salt], for which the results for the IC50 on placental αvβ3 and at GP IIb-IIIa (αIIbβ3) were 0.72 µM and 14.8 µM, respectively.

Consider `N=C(N)NCc1ccc2cc(C(=O)NCC(Nc3ncccn3)C(=O)O)cc(=O)n2c1` (racemic) [Compound XLIV, (+/−)-3-[(7-guanidinomethyl-4-oxo-4H-quinolizine-2-carbonyl)-amino]-2-(pyrimidin-2-ylamino)-propionic acid bis-trifluoroacetic acid salt], for which the IC50 on placental αvβ3 stood at 0.03 µM; at GP IIb-IIIa (αIIbβ3), 6 µM.

For the compound `CN(CCN(C)c1ccn2c(=O)c(C(=O)NC(CC(=O)O)c3ccccc3)ccc2c1)C(=N)N` (racemic) [Compound XXXIX, (+/−)-3-[(8-{Methyl-[2-(N-methyl-guanidino)-ethyl]-amino}-4-oxo-4H-quinolizine-3-carbonyl)-amino]-3-phenyl-propionic Acid Trifluoroacetic Acid Salt], the IC50 at placental αvβ3 is 21 µM; on GP IIb-IIIa (αIIbβ3) it was 0.063 µM.

`NCCNc1ccn2c(=O)c(C(=O)NC(CC(=O)O)c3ccccc3)ccc2c1` (racemic) [Compound XXXVI, (+/−)-3-{[8-(2-Amino-ethylamino)-4-oxo-4H-quinolizine-3-carbonyl]-amino}-3-phenyl-propionic Acid]: the IC50 on placental αvβ3 turned out to be 19 µM; on GP IIb-IIIa (αIIbβ3), 10 µM.

In the case of `N=C(N)SCCNc1ccn2c(=O)c(C(=O)NC(CC(=O)O)c3ccccc3)ccc2c1` (racemic) [Compound XXXVII, (+/−)-3-{[8-(2-Carbamimidoylsulfanyl-ethylamino)-4-oxo-4H-quinolizine-3-carbonyl]-amino}-3-phenyl-propionic Acid Trifluoroacetic Acid Salt], the IC50 at placental αvβ3 worked out at 8.2 µM; on GP IIb-IIIa (αIIbβ3) it was 0.17 µM.

In the case of `O=C(O)CC(NC(=O)c1ccc2cc(NCCSC(=S)Nc3cccnc3)ccn2c1=O)c1ccccc1` (racemic) [Compound XXXVIII, (+/−)-3-({4-Oxo-8-[2-(pyridin-3-ylthiocarbamoylsulfanyl)-ethylamino]4H-quinolizine-3-carbonyl}-amino)-3-phenyl-propionic acid trifluoroacetic acid salt], the IC50 at placental αvβ3 came out at 13 µM; at GP IIb-IIIa (αIIbβ3) it was 0.045 µM.

With `O=C(O)CC(NC(=O)c1ccc2ccc(OCCCNC(=O)NCc3ccccc3)cn2c1=O)c1ccccc1` (racemic) [Compound X], the IC50 at placental αvβ3 was found to be 67 µM; on GP IIb-IIIa (αIIbβ3), 29 µM.

Take `NCCCOc1ccc2cc(C(=O)NC[C@H](Nc3ncccn3)C(=O)O)cc(=O)n2c1` (stereo in doubt) [Compound XXI, 3-{[7-(3-Amino-propoxy)-4-oxo-4H-quinolizine-2 carbonyl]-amino}-2-(pyrimidin-2-ylamino)-propionic Acid Hydrochloride]: the half-maximal inhibitory concentration (IC50) at placental αvβ3 worked out at 14 µM; on GP IIb-IIIa (αIIbβ3), 0.074 µM.

Regarding `NCc1ccc2cc(C(=O)NC[C@H](NS(=O)(=O)c3ccccc3)C(=O)O)cc(=O)n2c1` (stereo in doubt) [Compound XXVI, 3-[(7-Aminomethyl-4-oxo-4H-quinolizine-2-carbonyl)-amino]-2-benzenesulfonylamino-propionic Acid Trifluoroacetic Acid Salt], the IC50 turned out to be 0.019 µM on placental αvβ3 and 0.44 µM on GP IIb-IIIa (αIIbβ3).

`NCCCCCOc1ccc2ccc(C(=O)NC[C@H](NS(=O)(=O)c3ccccc3)C(=O)O)c(=O)n2c1` [Compound I, (S)-2-Benzenesulfonylamino-3-{[7-(5-aminopentyloxy)-4-oxo-4H-quinolizine-3-carbonyl]-amino}-propionic Acid TFA Salt]: the results for the IC50 on placental αvβ3 and on GP IIb-IIIa (αIIbβ3) were 44 µM and 0.058 µM, respectively.

As to `N=C(N)NCCCCCOc1ccc2ccc(C(=O)NC[C@H](NS(=O)(=O)c3ccccc3)C(=O)O)c(=O)n2c1` [Compound II, (S)-2-Benzenesulfonylamino-3-{[7-(5-guanidino-pentyloxy)-4-oxo-4H-quinolizine-3-carbonyl]-amino}-propionic Acid Hydrochloride], the values for the IC50 on placental αvβ3 and at GP IIb-IIIa (αIIbβ3) were 24 µM and 3.9 µM, respectively.

For `NCCCOc1ccc2ccc(C(=O)NC[C@H](NS(=O)(=O)c3ccccc3)C(=O)O)c(=O)n2c1` [Compound III, (S)-3-{[7-(3-Amino-propoxy)-4-oxo-4H-quinolizine-3-carbonyl]-amino}-2-benzenesulfonylamino-propionic Acid Trifluoroacetic Acid Salt], the IC50 on placental αvβ3 was 96 µM; on GP IIb-IIIa (αIIbβ3), 0.52 µM.

Consider `N=C(N)NCCCOc1ccc2ccc(C(=O)NC[C@H](NS(=O)(=O)c3ccccc3)C(=O)O)c(=O)n2c1` [Compound IV, (S)-2-Benzenesulfonylamino-3-{[7-(3-guanidino-propoxy)-4-oxo-4H-quinolizine-3-carbonyl]-amino}-propionic Acid Hydrochloride], for which the IC50 turned out to be 8.7 µM at placental αvβ3 and 0.033 µM on GP IIb-IIIa (αIIbβ3).

Regarding `N=C(N)NCCCOc1ccc2ccc(NC(=O)NC[C@H](NS(=O)(=O)c3ccccc3)C(=O)O)c(=O)n2c1` [Compound IX, (S)-2-Benzenesulfonylamino-3-{3-[7-(3-guanidino-propoxy)-4-oxo-4H-quinolizin-3-yl]-ureido}-propionic Acid Trifluoroacetate Salt], the IC50 at placental αvβ3 is 1.3 µM; on GP IIb-IIIa (αIIbβ3), 0.0096 µM.

Consider `O=C(NC[C@H](NS(=O)(=O)c1ccccc1)C(=O)O)Nc1ccc2ccc(OCCCNC(=O)OCc3ccccc3)cn2c1=O` [Compound VI, (S)-2-Benzenesulfonylamino-3-{3-[7-(3-benzyloxycarbonylamino-propoxy)-4-oxo-4H-quinolizine-3-yl]-ureido}-propionic Acid], for which the IC50 at placental αvβ3 is more than 100 µM; on GP IIb-IIIa (αIIbβ3), 1.8 µM.

Values taken from patent US6630488B1, “Quinolizinones as integrin inhibitors” (Biochem Pharma, Inc., priority 1998, dated 2003).
